These results are taken from ChEMBL document CHEMBL1201862, “PubChem BioAssay data set” (2004).

Holding throughout (assay): NCI anticancer screen, dose series, 48 h
For assay [1], the system named is SNB-75.
For assay [2], the system named is Hs-578T.
In assay [3] the test system is MOLT-4.
Assay [4] concerns NCI-H522.
For assay [5], the system named is SF-539.
Assay [6] relates to BT-549.
For assay [7], the system named is A549.
Assay [8] has as its system 786-0.
Assay [9] relates to PC-3.
Assay [10] deals with MDA-N.
For assay [11], the system named is HOP-92.
Assay [12] relates to UO-31.
Assay [13] relates to HL-60.
In assay [14] the test system is IGROV-1.
In assay [15] the test system is KM12.
Assay [16] has as its system SK-MEL-28.
For assay [17], the system named is MDA-MB-231.
Assay [18] relates to RXF 393.
In assay [19] the test system is K562.
Assay [20] deals with NCI/ADR-RES.

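Tested at 5 concentrations; 48 h exposure; 96-well plates; endpoints linearly interpolated, else capped at highest concentration. The concentration for 50% growth inhibition is given as GI50.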 Calls of active or inactive are those of the source. Rule as the data show it: active = GI50 up to about 1.1 µM and inactive = higher. Where a SMILES comes first, the peptide text is derived from it. Square brackets hold non-standard residues; d marks the D form. Peptide text beside a SMILES is read from it. The star is where a group is joined. * marks the point of attachment. Tyr(3-Br) = N[C@@H](Cc1ccc(O)c(Br)c1)C(=O)O; Boc = CC(C)(C)OC(=O)*

Take `CC(=O)[C@]1(O)Cc2c(O)c3c(c(O)c2[C@@H](OC2CC(N)C(O)C(C)O2)C1)C(=O)c1c(OCc2ccccc2)cccc1C3=O` (some centres not stated): the GI50 was 3.48 µM (inactive) in assay [1]; 0.619 µM (active) in [2]; 0.0741 µM (active) in assay [3]; 1.48 µM (inactive) in assay [4]; 1.46 µM (inactive) in [5]; 3.76 µM (inactive) in [6]. Also, the GI50 in assay [7] is 0.75 µM (active); in assay [8] it was 1.08 µM (active); in assay [9], 1.26 µM (inactive); in assay [10], 1.58 µM (inactive); in assay [11] it was 3.18 µM (inactive); in assay [12] it was 2.28 µM (inactive). Moreover, the GI50 in assay [13] is 0.132 µM (active); in assay [14], 7.98 µM (inactive); in assay [15] it was 1.41 µM (inactive); in assay [16] it was 1.54 µM (inactive); in [17], 1.92 µM (inactive); in [18] it was 2.63 µM (inactive). The GI50 in [19] is 0.738 µM (active).
With `COC(=O)C(Cc1c[nH]c2ccccc12)NC(=O)C(Cc1c[nH]c2ccccc12)NC(=O)C(Cc1c[nH]c2ccccc12)NC(=O)OC(C)(C)C` (stereo not drawn) (Boc-Trp-Trp-Trp-OMe; configuration not given here), the GI50 in assay [1] is 19.8 µM (inactive); in assay [2], 17.7 µM (inactive); in assay [3], 17.3 µM (inactive); in assay [6], 18.1 µM (inactive); in assay [7], 39.2 µM (inactive); in assay [8] it was 17.8 µM (inactive). Further, the GI50 in assay [9] was 15.9 µM (inactive); in assay [10] it was 20 µM (inactive); in assay [11] it was 13.2 µM (inactive); in assay [12] it was 24.3 µM (inactive); in assay [13], 16.1 µM (inactive); in [14], 18.7 µM (inactive). Also, the GI50 in assay [15] is 21.5 µM (inactive); in assay [16] it was 17.7 µM (inactive); in assay [17], 30.1 µM (inactive); in assay [18], 8.93 µM (inactive); in assay [19] it was 27 µM (inactive).
Regarding `C[C@@H]1C(=O)C[C@H]2C(C)(C)CCC[C@]2(C)[C@@]1(O)CCc1ccoc1`, the GI50 in assay [1] is > 100 µM (inactive); in assay [2], 89.5 µM (inactive); in assay [3] it was 80.4 µM (inactive); in assay [4] it was 66.4 µM (inactive); in assay [5], > 100 µM (inactive); in [6], > 100 µM (inactive). Further, the GI50 in assay [7] was > 100 µM (inactive); in assay [8] it was > 100 µM (inactive); in [9], > 100 µM (inactive); in [10], > 100 µM (inactive); in [11], > 100 µM (inactive); in assay [12] it was 55.1 µM (inactive). The GI50 in assay [13] is 53 µM (inactive); in assay [14], 57.4 µM (inactive); in assay [15], > 100 µM (inactive); in assay [16], > 100 µM (inactive); in assay [17] it was > 100 µM (inactive); in [18] it was > 100 µM (inactive). Besides, the GI50 in assay [19] was > 100 µM (inactive).
`COc1ccccc1[S+]([O-])Nc1ccccc1` (configuration not stated): the GI50 in [2] was 76 µM (inactive); in assay [3] it was 32.2 µM (inactive); in assay [4], 38.2 µM (inactive); in assay [5], 25.3 µM (inactive); in [6], 17.4 µM (inactive); in [7], 74.6 µM (inactive). The GI50 is 91.4 µM (inactive) in [20]; > 100 µM (inactive) in [8]; > 100 µM (inactive) in [10]; 33.6 µM (inactive) in assay [12]; 82.8 µM (inactive) in assay [13]; 37.2 µM (inactive) in assay [14]. The GI50 in [15] was 12.5 µM (inactive); in assay [16], > 100 µM (inactive); in assay [17] it was > 100 µM (inactive); in assay [19] it was 25.4 µM (inactive).
`CSc1ccc(C2C(Cl)C(=O)N2NC(=O)c2c(Cl)c(Cl)c(Cl)c(Cl)c2-c2nc3ccccc3[nH]2)cc1` (configuration not stated): the GI50 in [1] was 15.2 µM (inactive); in assay [2], 32.5 µM (inactive); in assay [3] it was 4.7 µM (inactive); in [4], 1.83 µM (inactive); in [5] it was 20.8 µM (inactive); in [6] it was 17.2 µM (inactive). Further, the GI50 was 31.4 µM (inactive) in assay [7]; 29.9 µM (inactive) in assay [20]; 18.4 µM (inactive) in assay [8]; 17.5 µM (inactive) in [9]; 21.5 µM (inactive) in assay [10]; 11.5 µM (inactive) in [11]. Besides, the GI50 in assay [12] was 3.93 µM (inactive); in [13], 19.1 µM (inactive); in [14] it was 0.402 µM (active); in assay [15], 16.8 µM (inactive); in [16] it was 17.2 µM (inactive); in assay [18] it was 1.97 µM (inactive). In assay [19], the GI50 was 18.1 µM (inactive).
For the compound `CC(=O)Nc1sccc1S(=O)(=O)c1ccc(Cl)cc1`, the GI50 in assay [1] was 55.6 µM (inactive); in [2], > 100 µM (inactive); in [3] it was > 100 µM (inactive); in [4], > 100 µM (inactive); in assay [5], > 100 µM (inactive); in assay [6], > 100 µM (inactive). The GI50 in [7], in assay [20], in assay [8], in [9], in assay [11] and in assay [12] was > 100 µM (inactive) in each case. Besides, the GI50 in assay [13], in assay [14], in assay [15], in [16], in assay [17] and in assay [18] was > 100 µM (inactive) throughout. Also, the GI50 in assay [19] was > 100 µM (inactive).
As for `Cc1ccc(Oc2cc(C)ccc2P(=O)(O)O)cc1`, the GI50 in [1], in [2], in assay [3], in assay [4], in assay [5] and in assay [6] was > 100 µM (inactive) throughout. Also, the GI50 in assay [7], in assay [8], in assay [9], in assay [10], in assay [11] and in assay [12] was > 100 µM (inactive) throughout. The GI50 in [13], in [14], in assay [15], in assay [16], in assay [17] and in [18] was > 100 µM (inactive) each time. Besides, the GI50 in [19] was > 100 µM (inactive).
For the compound `O=C(O)c1ccc(Nc2nc3ccccc3nc2C(=O)O)cc1`, the GI50 in assay [1], in [2], in assay [3], in assay [4], in assay [5] and in assay [6] was > 100 µM (inactive) each time. The GI50 in assay [7], in assay [20], in assay [8], in [10], in assay [11] and in assay [12] was > 100 µM (inactive) throughout. The GI50 in assay [13] is > 10 µM (inactive); in [14], > 100 µM (inactive); in assay [15], > 100 µM (inactive); in [16], > 100 µM (inactive); in [17], > 100 µM (inactive); in assay [19] it was > 100 µM (inactive).
`COC(=O)[C@H](Cc1ccc(O)c(Br)c1)NC(=O)[C@H](Cc1ccc(O)cc1)NC(=O)OC(C)(C)C` (Boc-Tyr-[Tyr(3-Br)]-OMe): the GI50 was 92 µM (inactive) in assay [1]; > 100 µM (inactive) in assay [2]; 48.2 µM (inactive) in [3]; 28.7 µM (inactive) in assay [5]; 35.2 µM (inactive) in assay [6]; > 100 µM (inactive) in assay [7]. Besides, the GI50 is > 100 µM (inactive) in [20]; 41.3 µM (inactive) in assay [8]; > 100 µM (inactive) in assay [9]; > 100 µM (inactive) in [10]; 28.6 µM (inactive) in assay [11]; 29 µM (inactive) in [12]. For the same compound, the GI50 was 32.4 µM (inactive) in assay [13]; 37 µM (inactive) in assay [14]; 40.6 µM (inactive) in assay [15]; 34.6 µM (inactive) in [16]; > 100 µM (inactive) in [19].
On to `Nc1nc(Cl)c(N)c(NCC2(CO)CC(CCCc3ccccc3)C2)n1` (configuration not stated), for which the GI50 in assay [1] was 20.4 µM (inactive); in assay [2] it was 36.7 µM (inactive); in [3] it was 5.07 µM (inactive); in [4] it was 0.121 µM (active); in [5], 30 µM (inactive); in [6], 15.5 µM (inactive). The GI50 in assay [7] was 15.5 µM (inactive); in assay [8], 22.7 µM (inactive); in assay [9] it was 17.9 µM (inactive); in [10], 19.3 µM (inactive); in assay [11], 51.1 µM (inactive); in assay [12] it was 12.9 µM (inactive). Also, the GI50 in assay [13] was 0.117 µM (active); in assay [14] it was 21.6 µM (inactive); in assay [15], 21.5 µM (inactive); in [16], 47.1 µM (inactive); in [17], 41.5 µM (inactive); in [19], 10.8 µM (inactive).
Take `CCOC(=O)NC(=S)c1ccc(O)c2ccccc12`: the GI50 in assay [2] was 21.7 µM (inactive); in assay [3], 36.1 µM (inactive); in assay [4], 16.9 µM (inactive); in assay [5] it was 53.8 µM (inactive); in [6], 23 µM (inactive); in assay [7], 44.9 µM (inactive). The GI50 was 25.8 µM (inactive) in assay [20]; > 100 µM (inactive) in [8]; > 100 µM (inactive) in assay [9]; 26.4 µM (inactive) in assay [10]; 45.6 µM (inactive) in assay [12]; 1.47 µM (inactive) in assay [13]. The GI50 was 13.9 µM (inactive) in assay [14], 39 µM (inactive) in assay [15], 32.4 µM (inactive) in assay [16] and 42.1 µM (inactive) in assay [19].
